± gives the standard deviation of the averaged measurements.
Legend:
BEZ-235 = compound: Cn1c(=O)n(-c2ccc(C(C)(C)C#N)cc2)c2c3cc(-c4cnc5ccccc5c4)ccc3ncc21 [BEZ-235]; assay: surviving fraction relative to DMSO-only wells; higher = less growth inhibition; conditions: exposure time: 5 days
Method in brief: (§1)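 Surviving fraction is CellTiter-Glo luminescence divided by the median of wells given DMSO only. For this, log-phase tumour cell lines went into 384-well plates at 250–500 cells per well and, 24 hours later, into five days of continuous inhibitor exposure at 0.5, 1, 5, 10, 50, 100, 500 and 1000 nM. Lines were screened three times and retained only if replicate Pearson r >0.7 and median Z' >0.3.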

BMN-673 = compound: Cn1ncnc1[C@H]1c2n[nH]c(=O)c3cc(F)cc(c23)N[C@@H]1c1ccc(F)cc1 [BMN-673]; assay: as above; conditions: exposure time: 5 days
Method in brief: as §1

Row | Test System | surviving fraction (BEZ-235; 0.5 nM) | surviving fraction (BEZ-235; 1 nM) | surviving fraction (BEZ-235; 5 nM) | surviving fraction (BEZ-235; 10 nM) | surviving fraction (BEZ-235; 50 nM) | surviving fraction (BEZ-235; 100 nM) | surviving fraction (BEZ-235; 500 nM) | surviving fraction (BEZ-235; 1000 nM) | surviving fraction (BMN-673; 0.5 nM) | surviving fraction (BMN-673; 1 nM) | surviving fraction (BMN-673; 5 nM) | surviving fraction (BMN-673; 10 nM) | surviving fraction (BMN-673; 50 nM) | surviving fraction (BMN-673; 100 nM) | surviving fraction (BMN-673; 500 nM) | surviving fraction (BMN-673; 1000 nM)
1 | SUM149 BREAST | 1.11 ± 0.11 | 1.15 ± 0.044 | 1.04 ± 0.018 | 1 ± 0.059 | 0.715 ± 0.04 | 0.587 ± 0.024 | 0.153 ± 0.0052 | 0.108 ± 0.011 | 0.857 ± 0.051 | 0.721 ± 0.068 | 0.301 ± 0.019 | 0.226 ± 0.023 | 0.176 ± 0.017 | 0.163 ± 0.014 | 0.149 ± 0.0045 | 0.145 ± 0.024
2 | SUM149.B1*.S BREAST | 1.11 ± 0.041 | 1.12 ± 0.049 | 1.14 ± 0.038 | 1.12 ± 0.022 | 1.039 ± 0.0098 | 0.969 ± 0.072 | 0.376 ± 0.028 | 0.21 ± 0.0038 | 1.11 ± 0.036 | 1.03 ± 0.0064 | 1.05 ± 0.058 | 0.931 ± 0.059 | 0.808 ± 0.055 | 0.739 ± 0.063 | 0.451 ± 0.075 | 0.33 ± 0.052
3 | SUM159 BREAST | 1.11 ± 0.11 | 1.11 ± 0.099 | 1.1 ± 0.065 | 1.09 ± 0.069 | 0.922 ± 0.062 | 0.635 ± 0.065 | 0.228 ± 0.014 | 0.168 ± 0.015 | 1.12 ± 0.016 | 1.104 ± 0.0035 | 1.07 ± 0.013 | 1.06 ± 0.011 | 1.079 ± 0.0027 | 1.057 ± 0.0089 | 1.04 ± 0.013 | 0.957 ± 0.031
4 | SYO1 SYNOVIAL | 1.02 ± 0.036 | 0.973 ± 0.054 | 0.942 ± 0.065 | 0.96 ± 0.023 | 0.705 ± 0.04 | 0.457 ± 0.017 | 0.196 ± 0.011 | 0.117 ± 0.0081 | 0.855 ± 0.052 | 0.783 ± 0.023 | 0.499 ± 0.0035 | 0.336 ± 0.0059 | 0.168 ± 0.0078 | 0.125 ± 0.0048 | 0.0544 ± 0.0063 | 0.0423 ± 0.00058
5 | T47D BREAST | 1.07 ± 0.034 | 1.05 ± 0.015 | 1.04 ± 0.019 | 1.02 ± 0.016 | 0.89 ± 0.015 | 0.7209 ± 0.0056 | 0.47 ± 0.016 | 0.312 ± 0.0077 | 1.01 ± 0.04 | 0.975 ± 0.036 | 0.872 ± 0.051 | 0.82 ± 0.026 | 0.714 ± 0.019 | 0.654 ± 0.023 | 0.535 ± 0.017 | 0.455 ± 0.0098
6 | U2OS BONE | 1.03 ± 0.049 | 1.058 ± 0.0092 | 1.06 ± 0.011 | 1.06 ± 0.013 | 0.9133 ± 0.0045 | 0.78 ± 0.038 | 0.293 ± 0.006 | 0.256 ± 0.013 | 0.9887 ± 0.0081 | 0.994 ± 0.055 | 0.969 ± 0.018 | 0.915 ± 0.029 | 0.834 ± 0.026 | 0.732 ± 0.029 | 0.658 ± 0.029 | 0.647 ± 0.038
7 | VCAP PROSTATE | 1.08 ± 0.1 | 0.994 ± 0.09 | 1.12 ± 0.082 | 1.13 ± 0.12 | 0.902 ± 0.1 | 0.867 ± 0.056 | 0.422 ± 0.053 | 0.402 ± 0.0052 | 1.11 ± 0.084 | 0.947 ± 0.086 | 0.995 ± 0.03 | 0.976 ± 0.08 | 0.758 ± 0.029 | 0.711 ± 0.12 | 0.397 ± 0.029 | 0.385 ± 0.017
8 | VP229 BREAST | 1.36 ± 0.32 | 1.22 ± 0.075 | 1.25 ± 0.089 | 1.04 ± 0.035 | 0.969 ± 0.094 | 0.751 ± 0.025 | 0.268 ± 0.008 | 0.159 ± 0.008 | 1.09 ± 0.33 | 1.09 ± 0.16 | 1.1 ± 0.12 | 0.995 ± 0.091 | 0.969 ± 0.026 | 0.922 ± 0.17 | 0.951 ± 0.1 | 0.873 ± 0.19
9 | YAMATO SYNOVIAL | 1.28 ± 0.087 | 1.26 ± 0.12 | 1.34 ± 0.084 | 1.12 ± 0.048 | 0.923 ± 0.043 | 0.849 ± 0.12 | 0.47 ± 0.038 | 0.429 ± 0.016 | 1.08 ± 0.09 | 1.05 ± 0.035 | 1.05 ± 0.07 | 0.852 ± 0.039 | 0.788 ± 0.014 | 0.675 ± 0.035 | 0.503 ± 0.029 | 0.452 ± 0.013
10 | ZR751 BREAST | 1.03 ± 0.1 | 1.03 ± 0.23 | 0.912 ± 0.12 | 0.907 ± 0.093 | 0.725 ± 0.063 | 0.519 ± 0.1 | 0.226 ± 0.011 | 0.176 ± 0.011 | 1.23 ± 0.14 | 1.14 ± 0.15 | 1.04 ± 0.22 | 1 ± 0.15 | 1.01 ± 0.068 | 0.974 ± 0.11 | 1.04 ± 0.07 | 0.816 ± 0.017
